In patent publication US6310095A, “Inhibitors of protein isoprenyl transferases” (University of Pittsburgh, priority 1998, dated 2001):
Counter-ions that a name gives are not always drawn. Values belong to the compound of their own block, whether it stands above or below them.

Molecular target: T1, protein farnesyltransferase (Rattus norvegicus, UniProt Q02293+Q04631)
T1 construct: Rat brain protein farnesyltransferase activity is measured; from tissue; host or cells: rat brain; purified according to Reiss et al., Cell 62:81-88 (1990), steps one through three
Assay: in vitro inhibition of protein farnesyltransferase (scintillation proximity assay, biotin-K Ras B fragment)
Type: biochemical
Conditions: for inhibition at 0.01 µM / inhibition at 1 µM / inhibition at 0.1 µM: read-out: % inhibition of farnesyltransferase
Method in brief: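 Rat brain enzyme, purified through three steps, in a scintillation proximity assay kit with biotin-K Ras B fragment substrate at 0.1 mM final. Value is % inhibition of farnesylation.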

SMILES: CSCC[C@H](NC(=O)c1ccc(CN(C(C)=O)C(CC2CCCCC2)CC2CCCCC2)cc1-c1ccccc1C)C(=O)O [Example 909, N-[4-(N-acetyl-N-(1,3-Dicyclohexylpropan-2-yl)aminomethyl)-2-(2-methylphenyl)-benzoyl]methionine]
- inhibition at 0.01 µM (at 1 × 10^-8 M): 79%

SMILES: CSCC[C@H](NC(=O)c1ccc(CN(C(=O)c2ccccc2)C(CC2CCCCC2)CC2CCCCC2)cc1-c1ccccc1C)C(=O)O [Example 910, N-[4-(N-benzoyl-N-(1,3-Dicyclohexylpropan-2-yl)aminomethyl)-2-(2-methylphenyl)-benzoyl]methionine]
- inhibition at 1 µM (at 1 × 10^-6 M): 42%

SMILES: CSCC[C@H](NC(=O)c1ccc(CN(C(CC2CCCCC2)CC2CCCCC2)S(=O)(=O)c2ccccc2)cc1-c1ccccc1C)C(=O)O [Example 911, N-[4-(N-Benzenesulfoyl-N-(1,3-Dicyclohexylpropan-2-yl)aminomethyl)-2-(2-methylphenyl)-benzoyl]methionine]
- inhibition at 1 µM (at 1 × 10^-6 M): 65%

SMILES: CSCC[C@H](NC(=O)c1ccc(CNCC(=O)N(Cc2ccccc2)Cc2ccccc2)cc1-c1ccccc1C)C(=O)O [Example 914, N-[4-(N-(N,N-dibenzylacetamido)aminomethyl)-2-(2-methylphenyl)benzoyl]methionine]
- inhibition at 0.1 µM (at 1 × 10^-7 M): 91%

SMILES: CSCC[C@H](NC(=O)c1cc(Cc2ccccc2)c(COCc2ccccc2)cc1-c1ccccc1C)C(=O)O [Example 923]
- % inhibition of farnesyltransferase (at 1 × 10^-6 M): 78%

SMILES: CSCC[C@H](NC(=O)c1cc(Cc2ccccc2)c(COCc2ccco2)cc1-c1ccccc1C)C(=O)O [Example 924]
- % inhibition of farnesyltransferase (at 1 × 10^-6 M): 77%

SMILES: CSCC[C@H](NC(=O)c1cc(Cc2ccccc2)c(COCCCc2ccccc2)cc1-c1ccccc1C)C(=O)O [Example 925]
- % inhibition of farnesyltransferase (at 1 × 10^-6 M): 87%

SMILES: CSCC[C@H](NC(=O)c1ccc(COCc2ccccc2Cl)cc1-c1ccccc1C)C(=O)[O-].[Li+] [Example 930]
- % inhibition of farnesyltransferase (at 1 × 10^-8 M): 66%

SMILES: COc1ccccc1COCc1ccc(C(=O)N[C@@H](CCSC)C(=O)[O-])c(-c2ccccc2C)c1.[Li+] [Example 931]
- % inhibition of farnesyltransferase (at 1 × 10^-7 M): 98%

SMILES: COc1cccc(COCc2ccc(C(=O)N[C@@H](CCSC)C(=O)[O-])c(-c3ccccc3C)c2)c1.[Li+] [Example 932]
- % inhibition of farnesyltransferase (at 1 × 10^-8 M): 60%

SMILES: CSCC[C@H](NC(=O)c1ccc(COCc2ccc(Cl)cc2)cc1-c1ccccc1C)C(=O)[O-].[Li+] [Example 933]
- % inhibition of farnesyltransferase (at 1 × 10^-7 M): 91%

SMILES: CSCC[C@H](NC(=O)c1ccc(COCc2cccc(Cl)c2)cc1-c1ccccc1C)C(=O)[O-].[Li+] [Example 934]
- % inhibition of farnesyltransferase (at 1 × 10^-8 M): 71%

SMILES: COc1ccc(COCc2ccc(C(=O)N[C@@H](CCSC)C(=O)[O-])c(-c3ccccc3C)c2)cc1.[Li+] [Example 935]
- % inhibition of farnesyltransferase (at 1 × 10^-7 M): 72%

SMILES: CSCC[C@H](NC(=O)c1ccc(CNCc2ccccc2)cc1-c1ccccc1)C(=O)O [Example 936, N-[4-(N-benzylaminomethyl)-2-phenylbenzoyl]methionine hydrochloride salt]
- inhibition at 1 µM (at 1 × 10^-6 M): 69%

SMILES: CSCC[C@H](NC(=O)c1ccc(COCc2ccccc2C(C)C)cc1-c1ccccc1C)C(=O)[O-].[Li+] [Example 938]
- % inhibition of farnesyltransferase (at 1 × 10^-8 M): 61%

SMILES: CSCC[C@H](NC(=O)c1ccc(COCc2cccc(C(C)C)c2)cc1-c1ccccc1C)C(=O)[O-].[Li+] [Example 939]
- % inhibition of farnesyltransferase (at 1 × 10^-8 M): 72%

SMILES: CSCC[C@H](NC(=O)c1ccc(COCc2ccc(C(C)C)cc2)cc1-c1ccccc1C)C(=O)[O-].[Li+] [Example 940]
- % inhibition of farnesyltransferase (at 1 × 10^-7 M): 92%

SMILES: CCCCC(CCCC)OCc1ccc(C(=O)N[C@@H](CCSC)C(=O)[O-])c(-c2ccccc2C)c1.[Li+] [Example 942]
- % inhibition of farnesyltransferase (at 1 × 10^-8 M): 58%

SMILES: CCSCC(CC1CCCCC1)N(Cc1ccc(C(=O)N[C@@H](CCSC)C(=O)O)c(-c2ccccc2C)c1)CC(C)C (stereo partly drawn) [Example 945, N-[4-N-(3-Cyclohexyl-1-ethylthiopropan-2-yl)-N-isobutylaminomethyl-2-(2-methylphenyl)benzoyl]-methionine]
- % inhibition of farnesyltransferase (at 1 × 10^-7 M): 80%

SMILES: CCSC[C@H](CC1CCCCC1)N(Cc1ccc(C(=O)N[C@@H](CCSC)C(=O)O)c(-c2ccccc2C)c1)S(=O)(=O)c1ccccc1 [Example 951]
- inhibition at 0.1 µM (at 1 × 10^-7 M): 71%

SMILES: CSCC[C@H](NC(=O)c1ccc(NC(=O)[C@@H]2C[C@@H](O)CN2)cc1-c1ccccc1)C(=O)O [Example 952, N-[4-(4-hydroxyprolinylamino)-2-phenylbenzoyl]methionine]
- inhibition at 10 µM (at 1 × 10^-5 M): > 50%

SMILES: CSCC[C@H](NC(=O)c1ccc(NC[C@@H]2C[C@H](S)CN2)cc1-c1ccccc1)C(=O)O [Example 959, N-[4-((2S,4S)-4-thiolpyrrolidin-2-ylmethylamino)-2-phenylbenzoyl]methionine]
- inhibition at 0.1 µM (at 1 × 10^-7 M): > 50%

SMILES: CSCC[C@H](NC(=O)c1ccc(NC[C@H]2NCC[C@H]2S)cc1-c1ccccc1)C(=O)O [Example 960, N-[4-((2S,4R)-4-thiolpyrrolidin-2-ylmethylamino)-2-phenylbenzoyl]methionine]
- inhibition at 0.01 µM (at 1 × 10^-8 M): > 50%

SMILES: CSCC[C@H](NC(=O)c1ccc(NC(=O)OCCCl)cc1-c1ccccc1)C(=O)O [Example 979, N-[4-(N-2-chloroethoxycarbonyl)amino-2-phenylbenzoyl]methionine]
- inhibition at 1 µM (at 1 × 10^-6 M): 26%

Further lines, results first:

- inhibition at 0.01 µM (at 1 × 10^-8 M): 79%
SMILES: CSCC[C@H](NC(=O)c1ccc(CN(C)C(CC2CCCCC2)CC2CCCCC2)cc1-c1ccccc1C)C(=O)O [Example 907, N-[4-(N-(1,3-Dicyclohexylpropan-2-yl)-N-methylaminomethyl)-2-(2-methylphenyl)-benzoyl]methionine]

- inhibition at 1 µM (at 1 × 10^-6 M): 88%
SMILES: CSCC[C@H](NC(=O)c1ccc(CN(CC(C)C)C(CC2CCCCC2)CC2CCCCC2)cc1-c1ccccc1C)C(=O)O [Example 908]

- inhibition at 0.1 µM (at 1 × 10^-7 M): 85%
SMILES: CCCCN(CCCC)C(=O)CNCc1ccc(C(=O)N[C@@H](CCSC)C(=O)O)c(-c2ccccc2C)c1 [Example 912, N-[4-(N-(N,N-dibutylacetamido)aminomethyl)-2-(2-methylphenyl)benzoyl]methionine]

- inhibition at 0.1 µM (at 1 × 10^-7 M): 89%
SMILES: CCCCN(CCCC)C(=O)CN(C)Cc1ccc(C(=O)N[C@@H](CCSC)C(=O)O)c(-c2ccccc2C)c1 [Example 913, N-[4-(N-(N,N-dibutylacetamido)-N-methylaminomethyl)-2-(2-methylphenyl)benzoyl]methionine]

- inhibition at 0.01 µM (at 1 × 10^-8 M): 96%
SMILES: CCCCS(=O)(=O)N(CCC1CCCCC1)Cc1ccc(C(=O)N[C@@H](CCSC)C(=O)O)c(-c2ccccc2C)c1 [Example 916]

- inhibition at 0.1 µM (at 1 × 10^-7 M): 78%
SMILES: CCCCN(CCCC)Cc1ccc(C(=O)N[C@@H](CCSC)C(=O)O)c(-c2ccccc2C)c1 [Example 917, N-[4-(N,N-Dibutylaminomethyl)-2-(2-methylphenyl)benzoyl]methionine]

- inhibition at 0.01 µM (at 1 × 10^-8 M): 74%
SMILES: CCCCS(=O)(=O)N(CCCc1ccccc1)Cc1ccc(C(=O)N[C@@H](CCSC)C(=O)O)c(-c2ccccc2C)c1 [Example 927, N-[4-(N-Butanesulfonyl-N-(3-phenylpropyl)aminomethyl)-2-(2-methylphenyl)benzoyl]methionine]

- inhibition at 0.01 µM (at 1 × 10^-8 M): 84%
SMILES: CCCCN(CCc1ccccc1)Cc1ccc(C(=O)N[C@@H](CCSC)C(=O)O)c(-c2ccccc2C)c1 [Example 928, N-[4-(N-Butyl-N-(2-phenylethyl)aminomethyl)-2-(2-methylphenyl)benzoyl]methionine]

- % inhibition of farnesyltransferase (at 1 × 10^-7 M): 81%
SMILES: CCCC(CCC)NOCc1ccc(C(=O)N[C@@H](CCSC)C(=O)O)c(-c2ccccc2C)c1 [Example 929]

- % inhibition of farnesyltransferase (at 1 × 10^-6 M): 95%
SMILES: COc1ccc(CCOCc2ccc(C(=O)N[C@@H](CCSC)C(=O)O)c(-c3ccccc3C)c2)cc1 [Example 937]

- % inhibition of farnesyltransferase (at 1 × 10^-7 M): 90%
SMILES: CSCC[C@H](NC(=O)c1ccc(COCc2cccc(N(C)C)c2)cc1-c1ccccc1C)C(=O)O [Example 941]

- % inhibition of farnesyltransferase (at 1 × 10^-8 M): 79%
SMILES: CCCCC(Cc1ccccc1Cl)OCc1ccc(C(=O)N[C@@H](CCSC)C(=O)O)c(-c2ccccc2C)c1 (stereo partly drawn) [Example 943]

- inhibition at 0.01 µM (at 1 × 10^-8 M): 88%
SMILES: CCSC[C@H](CC1CCCCC1)N(C)Cc1ccc(C(=O)N[C@@H](CCSC)C(=O)O)c(-c2ccccc2C)c1 [Example 944, N-[4-N-(3-Cyclohexyl-1-ethylthiopropan-2-yl)-N-methylaminomethyl-2-(2-methylphenyl)benzoyl]-methionine hydrochloride salt]

- inhibition at 0.01 µM (at 1 × 10^-8 M): 52%
SMILES: CCSC[C@H](CC1CCCCC1)N(C=O)Cc1ccc(C(=O)N[C@@H](CCSC)C(=O)O)c(-c2ccccc2C)c1 [Example 946, N-[4-N-(3-Cyclohexyl-1-ethylthiopropan-2-yl)-N-formylaminomethyl-2-(2-methylphenyl)benzoyl]methionine]

- inhibition at 0.1 µM (at 1 × 10^-7 M): 79%
SMILES: CCSC[C@H](CC1CCCCC1)N(Cc1ccc(C(=O)N[C@@H](CCSC)C(=O)O)c(-c2ccccc2C)c1)C(C)=O [Example 947, N-[4-N-acetyl-N-(3-Cyclohexyl-1-ethylthiopropan-2-yl)aminomethyl-2-(2-methylphenyl)-benzoyl]methionine]

- inhibition at 0.1 µM (at 1 × 10^-7 M): 75%
SMILES: CCSC[C@H](CC1CCCCC1)N(Cc1ccc(C(=O)N[C@@H](CCSC)C(=O)O)c(-c2ccccc2C)c1)C(=O)OC(C)(C)C [Example 948, N-[4-N-t-Butyloxycarbonyl-N-(3-cyclohexyl-1-ethylthiopropan-2-yl)aminomethyl-2-(2-methylphenyl)benzoyl]methionine]

- inhibition at 0.1 µM (at 1 × 10^-7 M): 57%
SMILES: CCSC[C@H](CC1CCCCC1)N(Cc1ccc(C(=O)N[C@@H](CCSC)C(=O)O)c(-c2ccccc2C)c1)C(=O)c1ccccc1 [Example 949, N-[4-N-Benzoyl-N-(3-Cyclohexyl-1-ethylthiopropan-2-yl)aminomethyl-2-(2-methylphenyl)-benzoyl]methionine]

- inhibition at 0.1 µM (at 1 × 10^-7 M): 71%
SMILES: CCCCS(=O)(=O)N(Cc1ccc(C(=O)N[C@@H](CCSC)C(=O)O)c(-c2ccccc2C)c1)[C@H](CSCC)CC1CCCCC1 [Example 950, N-[4-N-Butanesulfoyl-N-(3-Cyclohexyl-1-ethylthiopropan-2-yl)aminomethyl-2-(2-methylphenyl)-benzoyl]methionine]
